Measured values as given in patent publication US11912719B2, “Substituted isoquinolines as rock kinase inhibitors” (Cervello Therapeutics LLC, priority 2018, dated 2024).

Assays:
Format in all cases: biochemical
[1] = target: T1, human ROCK1 catalytic domain (Homo sapiens, UniProt Q13464); test: fluorescence coupling (TR-FRET) enzymatic assay, ROCK1; conditions: 4 nM enzyme, 4 μM ATP, 50 nM Ulight-CREBTide, one hour room temperature; read-out: ROCK1 IC50
T1 construct: GST; purchased Carna BioSciences 01-109
T1 sequence (Q13464 1-477): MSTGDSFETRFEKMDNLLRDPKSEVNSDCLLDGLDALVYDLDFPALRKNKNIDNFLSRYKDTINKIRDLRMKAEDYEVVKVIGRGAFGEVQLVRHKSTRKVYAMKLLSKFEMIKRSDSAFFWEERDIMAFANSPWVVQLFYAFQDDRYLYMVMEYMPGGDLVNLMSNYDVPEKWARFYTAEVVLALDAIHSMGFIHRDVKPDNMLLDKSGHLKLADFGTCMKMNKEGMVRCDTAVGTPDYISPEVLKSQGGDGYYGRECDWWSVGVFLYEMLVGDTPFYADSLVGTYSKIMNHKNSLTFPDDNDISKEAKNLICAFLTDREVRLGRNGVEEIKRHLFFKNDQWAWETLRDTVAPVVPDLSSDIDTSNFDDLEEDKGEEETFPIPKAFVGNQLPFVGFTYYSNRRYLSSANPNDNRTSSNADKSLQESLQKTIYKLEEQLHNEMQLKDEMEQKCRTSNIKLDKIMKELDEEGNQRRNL
Experimental: (§1) Briefly, compounds of the present invention were solubilized in DMSO and a series of 12, three-fold serial dilutions were made for each compound in 2.5% DMSO. The initial starting concentration for the serial dilutions of each compound was 10 μM or 100 μM. Control samples lacking compound, ROCK enzyme or ATP also were prepared and processed in parallel with compound test samples.
The reaction mixtures were incubated at room temperature for one hour. After one hour, the reaction was stopped by the addition of a 10 solution of an Europium-labelled phospho-CREB (Ser133) antibody (Perkin Elmer, Catalog #TRF0200) in LANCE buffer supplemented with 20 mM EDTA. The stopped reaction mixtures were incubated at room temperature for 90 minutes. […] The ICso value for each compound was determined from each dose-response curve using GraphPad Prism 7 software with a sigmodial dose response.

[2] = target: T2, cGMP-dependent protein kinase 1 (PKG or PRKG1) (Homo sapiens, UniProt Q13976); test: fluorescence coupling (TR-FRET) enzymatic assay, PKG off-target control; conditions: 8 nM enzyme, 30 μM ATP, 50 nM Ulight-CREBTide, one hour room temperature
T2 construct: GST; purchased Carna BioSciences 01-142
T2 sequence (Q13976 1-686 isoform Q13976-2): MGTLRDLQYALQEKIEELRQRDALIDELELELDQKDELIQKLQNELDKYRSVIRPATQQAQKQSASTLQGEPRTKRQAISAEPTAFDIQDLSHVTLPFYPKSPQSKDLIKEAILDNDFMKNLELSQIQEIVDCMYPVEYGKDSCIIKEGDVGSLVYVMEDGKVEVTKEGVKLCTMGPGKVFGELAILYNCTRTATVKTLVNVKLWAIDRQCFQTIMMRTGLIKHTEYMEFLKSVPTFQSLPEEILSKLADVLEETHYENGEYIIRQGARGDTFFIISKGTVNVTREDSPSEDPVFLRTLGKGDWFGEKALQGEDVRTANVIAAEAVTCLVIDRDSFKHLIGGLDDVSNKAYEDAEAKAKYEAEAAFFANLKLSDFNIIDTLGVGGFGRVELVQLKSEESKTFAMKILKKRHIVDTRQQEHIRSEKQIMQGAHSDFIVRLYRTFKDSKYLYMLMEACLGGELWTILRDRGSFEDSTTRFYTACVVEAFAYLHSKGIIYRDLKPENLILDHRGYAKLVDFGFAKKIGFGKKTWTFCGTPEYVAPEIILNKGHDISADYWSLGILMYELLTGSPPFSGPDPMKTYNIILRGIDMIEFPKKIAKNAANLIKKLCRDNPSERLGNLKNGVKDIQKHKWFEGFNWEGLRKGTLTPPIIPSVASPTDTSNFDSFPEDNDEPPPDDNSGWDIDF
Experimental: (§2) Dose-response curves for compounds of the present invention were determined using a fluorescence coupling enzymatic assay using purified C-terminal truncated human ROCK1 catalytic domain (amino acids 1-477 of accession number NP_005397.1) fused to GST (Carna BioSciences, Catalog #01-109) and purified C-terminal truncated human ROCK2 enzyme kinase domain (amino acids 1-553 of accession number NP_004841.2) fused to GST BioSciences, Catalog #01-110). In addition, full length cGMP-dependent protein kinase 1 (PKG or PRKG1; amino acids 1-686 of accession number NP_006249.1) fused to GST (Carna BioSciences, Catalog #01-142), full length PKACα (PRKACA; amino acids 1-351 of accession number NP_002721.1) fused to GST (Carna BioSciences, Catalog #01-127), and C-terminal truncated human AKT1 catalytic domain (amino acids 104-480 of accession number NP_005154.1) fused to GST Biosciences, Catalog #01-101) were used as a control to measure any non-desired off-target kinase activity.
as §1
(§3) A 4 μL aliquot of each serial dilution of test compound diluted in H2O with 2.5% DMSO was added to a well containing 4 μL of 10 nM purified N-truncated ROCK1 (4 nM final concentration), 10 nM purified N-truncated ROCK2 enzyme (4 nM final concentration), 1.25 nM AKT1 (0.5 nM final concentration), 25 pM PKACA (10 pM final concentration) or 20 nM PKG (8 nM final concentration), in reaction buffer containing 50 mM Hepes, pH 7.5, 1 mM EGTA, 10 mM MgCl2, 2 mM DTT, and 0.01% Tween 20 (final concentration). To initiate the enzymatic reaction, 2 μL of a solution was added to each well to provide a final concentration of 50 nM Ulight-CREBTide peptide substrate (Perkin Elmer, Catalog #TRF0107) and 4 μM ATP for ROCK1 and AKT1 assays, […] for ROCK2 assays and 30 μM ATP for PKG assays, or 1 μM ATP for PKACA assays. The reaction mixtures were incubated at room temperature for one hour. After one hour, the reaction was stopped by the addition of a 10 solution of an Europium-labelled phospho-CREB (Ser133) antibody (Perkin Elmer, Catalog #TRF0200) in LANCE buffer supplemented with 20 mM EDTA. The stopped reaction mixtures were incubated at room temperature for 90 minutes. The TR-FRET 665/620 ratios were determined using a Clariostar monochromator plate reader instrument (BMG LabTech) in accordance with the manufacturer's instructions. The ICso value for each compound was determined from each dose-response curve using GraphPad Prism 7 software with a sigmodial dose response. Key: A is IC50≤100 nM; B is 100 nM<IC50<1000 nM; C is 1,000<IC50≤10,000 nM; D is IC50>10,000 nM

PKACα (PRKACA) = target: T3, PKACα (PRKACA) (Homo sapiens, UniProt P17612); test: fluorescence coupling (TR-FRET) enzymatic assay, PKACA off-target control; conditions: 10 pM enzyme, 1 μM ATP, 50 nM Ulight-CREBTide, one hour room temperature
T3 construct: GST; purchased Carna BioSciences 01-127
Experimental: as §2, §1, §3

[3] = target: T4, human ROCK2 enzyme kinase domain (Homo sapiens, UniProt O75116); test: fluorescence coupling (TR-FRET) enzymatic assay, ROCK2; conditions: 4 nM enzyme, 50 nM Ulight-CREBTide, one hour room temperature
T4 construct: GST; purchased Carna BioSciences 01-110
T4 sequence (O75116 1-553): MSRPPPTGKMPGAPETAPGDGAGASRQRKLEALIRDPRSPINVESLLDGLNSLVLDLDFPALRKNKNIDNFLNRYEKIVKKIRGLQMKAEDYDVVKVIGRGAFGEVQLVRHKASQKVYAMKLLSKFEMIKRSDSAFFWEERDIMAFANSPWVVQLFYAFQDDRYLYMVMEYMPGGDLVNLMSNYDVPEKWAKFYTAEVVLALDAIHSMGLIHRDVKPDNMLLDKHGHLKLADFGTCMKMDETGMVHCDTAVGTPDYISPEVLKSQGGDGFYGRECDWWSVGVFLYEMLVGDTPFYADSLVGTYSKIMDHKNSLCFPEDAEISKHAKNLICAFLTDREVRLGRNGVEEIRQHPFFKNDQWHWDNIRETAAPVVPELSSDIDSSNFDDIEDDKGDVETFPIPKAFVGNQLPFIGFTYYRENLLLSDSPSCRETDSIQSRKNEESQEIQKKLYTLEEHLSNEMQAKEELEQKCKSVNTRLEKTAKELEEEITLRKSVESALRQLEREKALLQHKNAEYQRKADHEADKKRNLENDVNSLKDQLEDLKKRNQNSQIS
Experimental: as §2, §1, §3

[4] = target: T5, human AKT1 catalytic domain (Homo sapiens, UniProt P31749); test: fluorescence coupling (TR-FRET) enzymatic assay, AKT1 off-target control; conditions: 0.5 nM enzyme, 4 μM ATP, 50 nM Ulight-CREBTide, one hour room temperature
T5 construct: GST; purchased Carna BioSciences 01-101
T5 sequence (P31749 104-480): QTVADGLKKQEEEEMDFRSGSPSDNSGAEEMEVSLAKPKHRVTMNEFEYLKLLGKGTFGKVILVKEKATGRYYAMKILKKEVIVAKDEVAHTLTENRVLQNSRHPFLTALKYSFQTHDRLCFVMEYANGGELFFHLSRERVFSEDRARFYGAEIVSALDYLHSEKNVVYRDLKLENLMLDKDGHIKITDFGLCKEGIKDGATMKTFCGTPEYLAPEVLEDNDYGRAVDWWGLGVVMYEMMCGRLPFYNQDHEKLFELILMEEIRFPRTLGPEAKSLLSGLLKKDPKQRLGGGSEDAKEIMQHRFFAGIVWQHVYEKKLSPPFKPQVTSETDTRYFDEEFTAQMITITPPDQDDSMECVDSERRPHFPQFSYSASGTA
Experimental: as §2, §1, §3

| IC50 [1] | IC50 [2] | IC50 (PKACα (PRKACA)) | IC50 [3] | IC50 [4] | SMILES |
| --- | --- | --- | --- | --- | --- |
| > 10 µM | > 10 µM | > 10 µM | > 10 µM | > 10 µM | N#Cc1ccc2c(c1)N(S(=O)(=O)c1cc(Cl)cc3c(=O)[nH]ccc13)CC2 [Example 20, 1-((7-Chloro-1-oxo-1,2-dihydroisoquinolin-5-yl)sulfonyl)indoline-6-carbonitrile] |
| > 10 µM | > 10 µM | > 10 µM | > 10 µM | > 10 µM | O=S(=O)(c1cccc2c(O)ncc(F)c12)N1CCc2ccc(Cl)cc21 [Example 21, 5-((6-Chloroindolin-1-yl)sulfonyl)-4-fluoroisoquinolin-1-ol] |
| < 0.1 µM | > 10 µM | 1 to 10 µM | < 0.1 µM | > 10 µM | Cc1cnc(O)c2cccc(S(=O)(=O)N3CCc4ccc(C#N)cc43)c12 [Example 22, 1-((1-Hydroxy-4-methylisoquinolin-5-yl)sulfonyl)indoline-6-carbonitrile] |
| 0.1 to 1 µM | > 10 µM | > 10 µM | 0.1 to 1 µM | > 10 µM | Cc1cc(C#N)cc2c1CCN2S(=O)(=O)c1cccc2c(O)ncc(C)c12 [Example 23, 1-((1-Hydroxy-4-methylisoquinolin-5-yl)sulfonyl)-4-methylindoline-6-carbonitrile] |
| 1 to 10 µM | > 10 µM | > 10 µM | 1 to 10 µM | > 10 µM | Cc1cnc(O)c2cccc(S(=O)(=O)N3CCc4ccc(Cl)cc43)c12 [Example 24, 5-((6-Chloroindolin-1-yl)sulfonyl)-4-methylisoquinolin-1-ol] |
| 1 to 10 µM | > 10 µM | > 10 µM | 1 to 10 µM | > 10 µM | O=c1[nH]ncc2c(S(=O)(=O)N3CCc4ccc(Cl)cc43)cccc12 [Example 25, 5-((6-Chloroindolin-1-yl)sulfonyl)phthalazin-1 (2H)-one] |
| 0.1 to 1 µM | > 10 µM | > 10 µM | 0.1 to 1 µM | > 10 µM | N#Cc1ccc2c(c1)N(S(=O)(=O)c1cccc3c(=O)[nH]ncc13)CC2 [Example 26, 1-((1-Oxo-1,2-dihydrophthalazin-5-yl)sulfonyl)indoline-6-carbonitrile] |
| < 0.1 µM | > 10 µM | 1 to 10 µM | < 0.1 µM | 1 to 10 µM | N#Cc1ccc2c(c1)N(S(=O)(=O)c1cccc3c(=O)[nH]cc(Cl)c13)CC2 [Example 27, 1-((4-chloro-1-oxo-1,2-dihydroisoquinolin-5-yl)sulfonyl)indoline-6-carbonitrile] |
| 0.1 to 1 µM | > 10 µM | > 10 µM | 0.1 to 1 µM | > 10 µM | N#Cc1cc2c(cn1)CCN2S(=O)(=O)c1cccc2c(=O)[nH]ccc12 [Example 28, 1-((1-oxo-1,2-dihydroisoquinolin-5-yl)sulfonyl)-2,3-dihydro-1H-pyrrolo[3,2-c]pyridine-6-carbonitrile] |
| < 0.1 µM | > 10 µM | 1 to 10 µM | < 0.1 µM | 1 to 10 µM | COc1cc(C#N)cc2c1CCN2S(=O)(=O)c1cccc2c(=O)[nH]ccc12 [Example 29, 4-methoxy-1-((1-oxo-1,2-dihydroisoquinolin-5-yl)sulfonyl)indoline-6-carbonitrile] |
| < 0.1 µM | > 10 µM | 1 to 10 µM | < 0.1 µM | 1 to 10 µM | CC(=O)Nc1cc(C#N)cc2c1CCN2S(=O)(=O)c1cccc2c(=O)[nH]ccc12 [Example 30, N-(6-cyano-1-((1-oxo-1,2-dihydroisoquinolin-5-yl)sulfonyl)indolin-4-yl)acetamide] |
| < 0.1 µM | > 10 µM | 1 to 10 µM | < 0.1 µM | > 10 µM | N#Cc1cc(N)c2c(c1)N(S(=O)(=O)c1cccc3c(=O)[nH]ccc13)CC2 [Example 31, 4-amino-1-((1-oxo-1,2-dihydroisoquinolin-5-yl)sulfonyl)indoline-6-carbonitrile] |
| < 0.1 µM | 1 to 10 µM | > 10 µM | < 0.1 µM | > 10 µM | CC(=O)Nc1cc(C#N)cc2c1CCN2S(=O)(=O)c1cccc2c(=O)[nH]cc(C)c12 [Example 32, N-(6-cyano-1-((4-methyl-1-oxo-1,2-dihydroisoquinolin-5-yl)sulfonyl)indolin-4-yl)acetamide] |
| < 0.1 µM | > 10 µM | > 10 µM | < 0.1 µM | > 10 µM | Cc1c[nH]c(=O)c2cccc(S(=O)(=O)N3CCc4c(N)cc(C#N)cc43)c12 [Example 33, 4-amino-1-((4-methyl-1-oxo-1,2-dihydroisoquinolin-5-yl)sulfonyl)indoline-6-carbonitrile] |
| 1 to 10 µM | > 10 µM | > 10 µM | 1 to 10 µM | > 10 µM | Cc1c[nH]c(=O)c2cccc(S(=O)(=O)N3CCc4c(N(C)C)cc(C#N)cc43)c12 [Example 34, 4-(dimethylamino)-1-((4-methyl-1-oxo-1,2-dihydroisoquinolin-5-yl)sulfonyl)indoline-6-carbonitrile] |
| < 0.1 µM | 1 to 10 µM | > 10 µM | < 0.1 µM | > 10 µM | CC(=O)Nc1cc(C#N)cc2c1CCN2S(=O)(=O)c1cccc2c(=O)[nH]cc(Cl)c12 [Example 35, N-(1-((4-chloro-1-oxo-1,2-dihydroisoquinolin-5-yl)sulfonyl)-6-cyanoindolin-4-yl)acetamide] |
| < 0.1 µM | 1 to 10 µM | > 10 µM | < 0.1 µM | > 10 µM | N#Cc1cc(N)c2c(c1)N(S(=O)(=O)c1cccc3c(=O)[nH]cc(Cl)c13)CC2 [Example 36, 4-amino-1-((4-chloro-1-oxo-1,2-dihydroisoquinolin-5-yl)sulfonyl)indoline-6-carbonitrile] |
